Measured values as given in article PMC10609061, “Detection of Various Traditional Chinese Medicinal Metabolites as Angiotensin-Converting Enzyme Inhibitors: Molecular Docking, Activity Testing, and Surface Plasmon Resonance Approaches” (Molecules, 2023).

Legend:
[1] = target: T1, recombinant soluble C domain of ACE1 (sACE1) (Homo sapiens, UniProt P12821); assay: SPR determination of affinity between TCM metabolites and immobilized sACE1 (Biacore T200, CM5 chip); format: binding; conditions: for Binding to sACE1 by SPR (in words): SPR assay; for Kd: SPR, sACE1 on CM5 chip, 0.39-50.0 µM metabolite, 25 °C, read-out: KD (equilibrium dissociation constant)
T1 construct: The cDNA coding for the soluble C domain of ACE1 (Ile640-Ala1231) was obtained by PCR amplification; HSA signal peptide (N); made in house; host or cells: HEK293 (transient transfection, protein purified from the culture supernatant)
T1 sequence (P12821 640-1231): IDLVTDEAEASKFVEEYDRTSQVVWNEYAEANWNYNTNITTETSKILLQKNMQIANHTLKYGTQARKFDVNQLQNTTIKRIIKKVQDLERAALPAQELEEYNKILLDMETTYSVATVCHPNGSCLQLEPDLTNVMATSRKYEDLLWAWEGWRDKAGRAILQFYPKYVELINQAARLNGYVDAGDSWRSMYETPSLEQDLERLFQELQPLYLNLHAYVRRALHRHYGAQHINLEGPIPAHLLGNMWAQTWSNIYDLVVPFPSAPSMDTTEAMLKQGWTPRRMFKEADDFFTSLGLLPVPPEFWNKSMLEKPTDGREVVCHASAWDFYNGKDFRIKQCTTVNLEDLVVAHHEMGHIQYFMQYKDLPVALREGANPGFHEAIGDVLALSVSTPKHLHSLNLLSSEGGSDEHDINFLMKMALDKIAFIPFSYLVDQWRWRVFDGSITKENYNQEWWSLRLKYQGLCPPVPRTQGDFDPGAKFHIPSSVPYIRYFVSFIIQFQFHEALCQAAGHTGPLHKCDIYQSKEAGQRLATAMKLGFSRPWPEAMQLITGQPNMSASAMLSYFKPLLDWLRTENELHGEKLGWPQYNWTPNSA

[2] = test system: ACE1 (angiotensin-converting enzyme); assay: ACE inhibition measurement with ACE1 activity test kit (fluorescence); format: biochemical; conditions: for Inhibition rate (%) of ACE1 activity, relative to captopril taken as 100%: TCM metabolite at 25 uM

Row | Inhibition rate (%) of ACE1 activity ([2]; captopril (positive control) at 1 uM) [%] | ACE1 inhibition in vitro (in words) ([2]; enzyme activity test) | Molecule | Binding to sACE1 by SPR (in words) [1] | Kd [1] [µM] | Inhibition rate (%) of ACE1 activity, relative to captopril taken as 100% [2] [%]
1 |  |  | O=c1cc(-c2ccc(O)c(O)c2)oc2cc(O)c([C@@H]3O[C@H](CO)[C@@H](O)[C@H](O)[C@H]3O)c(O)c12 [Homoorientin] | bound to sACE1 on the chip in a dose-dependent manner | 10.2 | 
2 | 101.5 |  | C[C@H](CS)C(=O)N1CCC[C@H]1C(=O)O [Captopril, reference compound] |  |  | 
3 |  |  | Procyanidin | bound to sACE1 on the chip in a dose-dependent manner |  | 67.5
4 |  | did not inhibit ACE1 in vitro | Oc1ccc(/C=C/c2cc(O)cc(O)c2)cc1 [Resveratrol] |  |  | 
5 |  |  | O=c1c(-c2ccc(O)cc2)coc2c([C@@H]3O[C@H](CO)[C@@H](O)[C@H](O)[C@H]3O)c(O)ccc12 [Puerarin] | bound to sACE1 on the chip in a dose-dependent manner | 13.8 | 
6 |  |  | Oc1cc(O)c2c(c1)O[C@H](c1ccc(O)c(O)c1)[C@@H](O)C2 [Cianidanol] | bound to sACE1 on the chip in a dose-dependent manner | 48.3 | 
7 |  |  | O=c1c(O[C@@H]2O[C@H](CO)[C@@H](O)[C@H](O)[C@H]2O)c(-c2ccc(O)c(O)c2)oc2cc(O)cc(O)c12 [Isoquercitrin] | bound to sACE1 on the chip in a dose-dependent manner | 5.76 | 35.6
8 |  |  | O=c1c(O)c(-c2ccc(O)c(O)c2)oc2cc(O)cc(O)c12 [Quercetin] | bound to sACE1 on the chip in a dose-dependent manner |  | 
9 |  |  | O=c1cc(-c2ccc(O)c(O)c2)oc2c([C@@H]3O[C@H](CO)[C@@H](O)[C@H](O)[C@H]3O)c(O)cc(O)c12 [Orientin] | bound to sACE1 on the chip in a dose-dependent manner | 9.32 | 
